Results as given in ChEMBL document CHEMBL1142989, “Synthesis and anti-cancer activity of C-ring-functionalized prodigiosin analogues” (2007).

Experiment: Growth inhibition in human NCI60 cells
Assay type: functional
Details: for TGI: read-out: Log TGI (converted)

| SMILES | GI50 [µM] | LC50 [µM] | TGI [µM] |
| --- | --- | --- | --- |
| COC(=O)CCC(=O)C1=C(C)/C(=C/c2[nH]c(-c3ccc[nH]3)cc2OC)N=C1C | 0.794 | 12.3 | 3.24 |
| COC(=O)CCCCC(=O)C1=C(C)/C(=C/c2[nH]c(-c3ccc[nH]3)cc2OC)N=C1C | 0.646 | 6.46 | 2.24 |
| CCc1c(-c2ccc[nH]2)[nH]c(/C=C2\N=C(C)C(C(=O)CCCCC(=O)OC)=C2C)c1C | 9.33 | 83.2 | 33.9 |
| COC(=O)CCCCCCCCC(=O)C1=C(C)/C(=C/c2[nH]c(-c3ccc[nH]3)cc2OC)N=C1C | 16.2 | 95.5 | 67.6 |
| COc1cc(-c2ccc[nH]2)[nH]c1/C=C1\N=C(C)C(C(C)=O)=C1C [PRODIGIOSIN5] | 0.708 | 89.1 | 40.7 |
| CCOC(=O)C1=C(C)/C(=C/c2[nH]c(-c3ccc[nH]3)cc2OC)N=C1C [PRODIGIOSIN 4] | 0.0468 | 12.3 | 1.1 |
| CCCCCC1=C/C(=C/c2[nH]c(-c3ccc[nH]3)cc2OC)N=C1C [PRODIGIOSIN CHLORIDE] | 0.0141 | – | 2.09 |
